Data reported in patent publication US11780826B2 (Amgen Inc., priority 2017, dated 2023).

System: Bovine cardiac myofibrils
Assay: In vitro model of dose-dependent myofibril ATPase modulation (AC1.4, pyruvate kinase/lactate dehydrogenase-coupled ATPase assay at pCa25)
Type: biochemical
Conditions: concentration at which ATPase activity was 1.4-fold higher than the bottom of the dose curve, mean of a minimum of two independent tests
In short: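 Coupled-enzyme ATPase on bovine heart myofibrils, 1 mM ATP, EGTA/CaCl2 buffered; 340 nm readout.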

Compound	AC1.4
N#CC1CN(S(=O)(=O)N2CCO[C@H](C(=O)N3CCC[C@@H]3C(=O)NCc3ccc(Cl)cc3F)C2)C1 [Example 187, N-(4-chloro-2-fluorobenzyl)-1-(((2S)-4-((3-cyano-1-azetidinyl)sulfonyl)-2-morpholinyl)carbonyl)-D-prolinamide]	0.3409 µM
O=C(NCc1ccc(C(F)(F)F)cc1)[C@H]1CC2(CC2)CN1C(=O)c1cccc(S(=O)(=O)N2CC3(CC3)C2)c1 [Example 312, (6R)-5-((3-(5-azaspiro[2.3]hex-5-ylsulfonyl)phenyl)carbonyl)-N-(4-(trifluoromethyl)benzyl)-5-azaspiro[2.4]heptane-6-carboxamide]	0.841 µM
N#CC1CN(S(=O)(=O)N2CCC[C@H](C(=O)N3CCC[C@@H]3C(=O)NCc3cc(Cl)cc(Cl)c3)C2)C1 [Example 390, 1-(((3S)-1-((3-cyano-1-azetidinyl)sulfonyl)-3-piperidinyl)carbonyl)-N-(3,5-dichlorobenzyl)-D-prolinamide]	1.3495 µM
N#CC1CN(S(=O)(=O)N2CC3CC2[C@@H](C(=O)N2CCC[C@@H]2C(=O)NCc2ccc(C(F)(F)F)cc2F)C3)C1 (stereo partly drawn) [Example 189, 1-((2-((3-cyano-1-azetidinyl)sulfonyl)-2-azabicyclo[2.2.1]hept-6-yl)carbonyl)-N-(2-fluoro-4-(trifluoromethyl)benzyl)-D-prolinamide]	0.3524 µM
CC(C)[C@H](NC(=O)[C@H]1CCCN1C(=O)[C@H]1CCCN(S(=O)(=O)N2CC(C#N)C2)C1)c1ccc(C(F)(F)F)cc1F [Example 229, 1-(((3S)-1-((3-cyano-1-azetidinyl)sulfonyl)-3-piperidinyl)carbonyl)-N-((1S)-1-(2-fluoro-4-(trifluoromethyl)phenyl)-2-methylpropyl)-D-prolinamide]	0.5053 µM
O=C(NCc1ccc(C(F)(F)F)cc1)[C@H]1CCCN1C(=O)c1cccc(S(=O)(=O)Cc2ccccc2)c1 [Example 454, 1-(3-(benzylsulfonyl)benzoyl)-N-(4-(trifluoromethyl)benzyl)-D-prolinamide]	1.8665 µM
Cc1cc(CNC(=O)[C@H]2CCCN2C(=O)[C@H]2CCCN(S(=O)(=O)N3CC(C#N)C3)C2)cc(C)c1F [Example 445, 1-(((3S)-1-((3-cyano-1-azetidinyl)sulfonyl)-3-piperidinyl)carbonyl)-N-(4-fluoro-3,5-dimethylbenzyl)-D-prolinamide]	1.823 µM
O=C(NCc1ccc(C(F)(F)F)cc1)[C@H]1CCCN1C(=O)[C@H]1CCCN(S(=O)(=O)N2CC(c3ccccn3)C2)C1 [Example 707, 1-(((3S)-1-((3-(2-pyridinyl)-1-azetidinyl)sulfonyl)-3-piperidinyl)carbonyl)-N-(4-(trifluoromethyl)benzyl)-D-prolinamide]	5.821 µM
N#CC1CN(S(=O)(=O)c2cc(F)cc(C(=O)N3CCC[C@@H]3C(=O)NCc3ccc(C(F)(F)F)cc3)c2)C1 [Example 53, 1-((3-((3-cyano-1-azetidinyl)sulfonyl)-5-fluorophenyl)carbonyl)-N-(4-(trifluoromethyl)benzyl)-D-prolinamide]	0.0574 µM
N#CC1CN(S(=O)(=O)c2cccc(C(=O)N3CCC[C@@H]3C(=O)NCc3cc(F)cc(F)c3)c2)C1 [Example 55, 1-(3-((3-cyano-1-azetidinyl)sulfonyl)benzoyl)-N-(3,5-difluorobenzyl)-D-prolinamide]	0.0606 µM
C[C@H](C(=O)N[C@H](C)c1ccc(Cl)cc1F)N(C)C(=O)[C@@H]1CN(S(=O)(=O)N2CC(C#N)C2)CCO1 [Example 419, (2S)-N-((2R)-1-(((1R)-1-(4-chloro-2-fluorophenyl)ethyl)amino)-l-oxo-2-propanyl)-4-((3-cyano-1-azetidinyl)sulfonyl)-N-methyl-2-morpholinecarboxamide]	1.542 µM
O=C(NCc1ccc(C(F)(F)F)cc1)[C@H]1CCCN1C(=O)[C@H]1CCCN(S(=O)(=O)N2CC(C(F)F)C2)C1 [Example 274, 1-(((3S)-1-((3-(difluoromethyl)-1-azetidinyl)sulfonyl)-3-piperidinyl)carbonyl)-N-(4-(trifluoromethyl)benzyl)-D-prolinamide]	0.6977 µM
N#CC1CN(S(=O)(=O)N2CCC[C@H](C(=O)N3CCC[C@@H]3C(=O)NCc3cccc(C(F)(F)F)c3F)C2)C1 [Example 335, 1-(((3S)-1-((3-cyano-1-azetidinyl)sulfonyl)-3-piperidinyl)carbonyl)-N-(2-fluoro-3-(trifluoromethyl)benzyl)-D-prolinamide]	0.9362 µM

Continued, values first:

AC1.4	Compound
2.4895 µM	O=C(N[C@@H](c1cc(F)c(Cl)cc1F)C1COC1)[C@H]1C[C@H]2C[C@H]2N1C(=O)c1cccc(C(F)(F)F)n1 [Example 529, (1R,3R,5R)-N-((R)-(4-chloro-2,5-difluorophenyl)(3-oxetanyl)methyl)-2-((6-(trifluoromethyl)-2-pyridinyl)carbonyl)-2-azabicyclo[3.1.0]hexane-3-carboxamide]
0.8325 µM	CS(=O)(=O)c1cccc(C(=O)N2[C@@H](C(=O)N[C@@H](c3cc(F)c(Cl)cc3F)C3(O)CC3)C[C@H]3C[C@H]32)c1 [Example 316, (1R,3R,5R)-N-((S)-(4-chloro-2,5-difluorophenyl)(1-hydroxycyclopropyl)methyl)-2-(3-(methylsulfonyl)benzoyl)-2-azabicyclo[3.1.0]hexane-3-carboxamide]
0.4436 µM	CS(=O)(=O)c1cccc(C(=O)N2[C@@H](C(=O)N[C@@H](c3ccc(Cl)cc3F)C3COC3)C[C@H]3C[C@H]32)c1 [Example 207, (1R,3R,5R)-N-((R)-(4-chloro-2-fluorophenyl)(3-oxetanyl)methyl)-2-(3-(methylsulfonyl)benzoyl)-2-azabicyclo[3.1.0]hexane-3-carboxamide]
2.628 µM	O=C(N[C@@H](c1cc(F)c(C(F)(F)F)cc1F)C1COC1)[C@H]1C[C@H]2C[C@H]2N1C(=O)c1cc(C(F)(F)F)no1 [Example 826, (1R,3R,5R)-N-((R)-(2,5-difluoro-4-(trifluoromethyl)phenyl)(oxetan-3-yl)methyl)-2-(3-(trifluoromethyl)isoxazole-5-carbonyl)-2-azabicyclo[3.1.0]hexane-3-carboxamide]
1.0375 µM	CS(=O)(=O)c1cncc(C(=O)N2CCC[C@@H]2C(=O)N[C@@H](c2cc(F)c(Cl)cc2F)C2CC2)c1 [Example 362, N-((R)-(4-chloro-2,5-difluorophenyl)(cyclopropyl)methyl)-1-((5-(methylsulfonyl)-3-pyridinyl)carbonyl)-D-prolinamide]
0.9555 µM	CS(=O)(=O)c1cccc(C(=O)N2[C@@H](C(=O)N[C@@H](c3ccc(Cl)cc3F)C3CC3)C[C@H]3C[C@H]32)c1 [Example 344, (1R,3R,5R)-N-((R)-(4-chloro-2-fluorophenyl)(cyclopropyl)methyl)-2-(3-(methylsulfonyl)benzoyl)-2-azabicyclo[3.1.0]hexane-3-carboxamide]
0.2103 µM	CCS(=O)(=O)c1cccc(C(=O)N2[C@@H](C(=O)N[C@@H](c3ccc(C(F)(F)F)cc3F)C3COC3)C[C@H]3C[C@H]32)c1 [Example 128, (1R,3R,5R)-2-(3-(ethylsulfonyl)benzoyl)-N-((R)-(2-fluoro-4-(trifluoromethyl)phenyl)(3-oxetanyl)methyl)-2-azabicyclo[3.1.0]hexane-3-carboxamide]
0.4666 µM	CS(=O)(=O)c1ccc(C(=O)N2CCC[C@@H]2C(=O)N[C@@H](c2cc(F)c(Cl)cc2F)C2CC2)cn1 [Example 215, N-((R)-(4-chloro-2,5-difluorophenyl)(cyclopropyl)methyl)-1-((6-(methylsulfonyl)-3-pyridinyl)carbonyl)-D-prolinamide]
6.701 µM	CS(=O)(=O)c1cccc(C(=O)N2[C@@H](C(=O)N[C@@H](c3ccc(F)cc3F)C3COC3)C[C@H]3C[C@H]32)c1 [Example 728, (1R,3R,5R)-N-((R)-(2,4-difluorophenyl)(3-oxetanyl)methyl)-2-(3-(methylsulfonyl)benzoyl)-2-azabicyclo[3.1.0]hexane-3-carboxamide]
4.609 µM	CC(C)[C@@H](NC(=O)[C@H]1CCCN1C(=O)c1cccc(S(C)(=O)=O)c1)c1ccc(C(F)(F)F)cc1F [Example 807, N-((1R)-1-(2-fluoro-4-(trifluoromethyl)phenyl)-2-methylpropyl)-1-(3-(methylsulfonyl)benzoyl)-D-prolinamide]
0.1795 µM	CS(=O)(=O)c1ccc(NCCO)c(C(=O)N2[C@@H](C(=O)N[C@@H](c3ccc(C(F)(F)F)cc3F)C3CC3)C[C@H]3C[C@H]32)c1 [Example 118, (1R,3R,5R)-N-((R)-cyclopropyl(2-fluoro-4-(trifluoromethyl)phenyl)methyl)-2-(2-((2-hydroxyethyl)amino)-5-(methylsulfonyl)benzoyl)-2-azabicyclo[3.1.0]hexane-3-carboxamide]
1.495 µM	CC(C)(C#N)c1cccc(C(=O)N2[C@@H](C(=O)N[C@@H](c3ccc(C(F)(F)F)cc3F)C3COC3)C[C@H]3C[C@H]32)c1 [Example 412, (1R,3R,5R)-2-(3-(2-cyano-2-propanyl)benzoyl)-N-((R)-(2-fluoro-4-(trifluoromethyl)phenyl)(3-oxetanyl)methyl)-2-azabicyclo[3.1.0]hexane-3-carboxamide]
1.3468 µM	CC(C)(O)c1cccc(C(=O)N2[C@@H](C(=O)N[C@@H](c3cc(F)c(C(F)(F)F)cc3F)C3COC3)C[C@H]3C[C@H]32)c1 [Example 819, (1R,3R,5R)-N-((R)-(2,5-difluoro-4-(trifluoromethyl)phenyl)(oxetan-3-yl)methyl)-2-(3-(2-hydroxypropan-2-yl)benzoyl)-2-azabicyclo[3.1.0]hexane-3-carboxamide]
2.2505 µM	CS(=O)(=O)c1cc(C(=O)N2C[C@@H](F)C[C@@H]2C(=O)N[C@@H](c2cc(F)c(Cl)cc2F)C2CC2)ccn1 [Example 510, (4S)-N-((R)-(4-chloro-2,5-difluorophenyl)(cyclopropyl)methyl)-4-fluoro-1-((2-(methylsulfonyl)-4-pyridinyl)carbonyl)-D-prolinamide]
